{
  "source": "paper PMC9019041",
  "about": "“Structural insights into the peptide selectivity and activation of human neuromedin U receptors” (Nature Communications, 2022)",
  "origin": "cited, not measured here",
  "key": {"[1]": {"test_system": "neuromedin U receptor 1 (NMUR1)", "conditions": "low selectivity; cited from earlier work", "text": "(§1) Human neuromedin U (NMU) is a 25-amino-acid endogenous peptide that was first discovered in extracts of the porcine spinal cord with a potent smooth muscle contractile activity. It is also involved in pleiotropic physiological functions, including the regulation of blood pressure, food uptake, nociception, pain perception, bone formation, and immunological responses. More recently, human neuromedin S (NMS), a 33-amino-acid endogenous peptide, was discovered, which shares an identical C-terminal heptapeptide with NMU. Unlike NMU, which is widely distributed in the central nervous system ( ..."}, "[2]": {"test_system": "neuromedin U receptor 2 (NMUR2)", "conditions": "low selectivity; cited from earlier work", "text": "as §1"}},
  "note": "Where no end group is shown, it is not given here.",
  "data": [
    {"substance": "neuromedin S (ILQRGSGTAAVDFTKKDHTATWGRPFFLFRPRN-NH2) [NMS, Human 33-amino-acid endogenous neuropeptide sharing the C-terminal heptapeptide with NMU; agonist of NMUR1 and NMUR2 (GenScript)]", "values": [
      {"measurement": "affinity", "setting": "[1]", "result": "sub-nanomolar"},
      {"measurement": "affinity", "setting": "[2]", "result": "sub-nanomolar"}
    ]}
  ]
}
